US8198273B2, “Compounds and methods for kinase modulation, and indications therefor” (Plexxikon Inc., priority 2009, dated 2012)

Columns and labels:
c-Raf-1 = c-Raf-1 (Homo sapiens, UniProt P04049); assay: c-Raf-1 biochemical kinase inhibition (AlphaScreen, biotin-MEK1 substrate); settings: 100 μM ATP
Summary of the method: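 IC50 derived from AlphaScreen signal plotted against compound concentration. Final ATP 100 μM; 3 h incubation at room temperature. Eight-point 3-fold dilution series prepared from a 0.1 mM DMSO stock.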

CYP1A2 = molecular target: T1, CYP1A2 (Homo sapiens, UniProt P05177); assay: CYP1A2 inhibition (fluorescent substrate); format: in vitro ADME; settings: CYP1A2, CEC substrate; read-out: Cyp IC50 1A2
T1 sequence (P05177 1-516): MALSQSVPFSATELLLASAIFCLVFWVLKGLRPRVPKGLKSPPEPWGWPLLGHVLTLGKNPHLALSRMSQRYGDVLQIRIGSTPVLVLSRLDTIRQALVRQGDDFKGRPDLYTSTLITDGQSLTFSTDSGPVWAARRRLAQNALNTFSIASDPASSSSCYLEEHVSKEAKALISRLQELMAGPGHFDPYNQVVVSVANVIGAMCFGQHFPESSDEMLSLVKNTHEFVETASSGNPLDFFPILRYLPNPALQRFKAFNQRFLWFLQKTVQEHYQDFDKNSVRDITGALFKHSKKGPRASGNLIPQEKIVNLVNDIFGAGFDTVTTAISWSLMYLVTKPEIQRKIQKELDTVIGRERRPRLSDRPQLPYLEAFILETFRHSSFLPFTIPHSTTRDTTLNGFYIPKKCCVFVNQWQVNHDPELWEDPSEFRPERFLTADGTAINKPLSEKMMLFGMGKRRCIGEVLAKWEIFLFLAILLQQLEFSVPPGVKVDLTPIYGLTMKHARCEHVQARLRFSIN
Summary of the method: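 IC50 values come from plotting product fluorescence against compound concentration; inhibition lowers formation of the fluorescent metabolite. Ten-point twofold dilutions in co-factor mix were held 10 minutes at 37 °C before the enzyme reaction, also run at 37 °C.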

CYP3A4(BQ) = CYP3A4(BQ) (Homo sapiens, UniProt P08684); assay: CYP3A4(BQ) inhibition (fluorescent substrate); format: in vitro ADME; settings: read-out: Cyp IC50 3A4(BQ)
Summary of the method: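 Inhibition was followed as loss of fluorescent metabolite from a known substrate, with compound in co-factor mix as a 10-point 1:1 serial dilution (100 mM DMSO stock).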

Chain of c-Raf-1 (P04049 whole entry): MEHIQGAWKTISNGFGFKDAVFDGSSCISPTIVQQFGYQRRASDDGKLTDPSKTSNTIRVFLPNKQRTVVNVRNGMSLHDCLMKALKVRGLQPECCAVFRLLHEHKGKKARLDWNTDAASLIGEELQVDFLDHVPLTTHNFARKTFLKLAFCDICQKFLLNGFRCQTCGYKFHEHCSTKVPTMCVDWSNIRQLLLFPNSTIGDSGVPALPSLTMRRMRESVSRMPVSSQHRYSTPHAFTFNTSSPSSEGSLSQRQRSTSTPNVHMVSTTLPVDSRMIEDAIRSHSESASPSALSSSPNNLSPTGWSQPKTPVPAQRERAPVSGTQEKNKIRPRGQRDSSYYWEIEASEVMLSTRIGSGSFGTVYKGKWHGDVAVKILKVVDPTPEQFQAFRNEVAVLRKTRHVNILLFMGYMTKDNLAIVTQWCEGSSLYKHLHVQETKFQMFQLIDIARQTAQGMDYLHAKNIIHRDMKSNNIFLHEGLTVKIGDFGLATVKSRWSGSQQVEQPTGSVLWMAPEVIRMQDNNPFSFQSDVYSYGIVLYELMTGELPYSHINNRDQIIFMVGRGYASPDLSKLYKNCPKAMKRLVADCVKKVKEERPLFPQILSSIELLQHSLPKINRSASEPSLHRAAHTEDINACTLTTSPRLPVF
Chain of CYP3A4(BQ) (P08684 whole entry): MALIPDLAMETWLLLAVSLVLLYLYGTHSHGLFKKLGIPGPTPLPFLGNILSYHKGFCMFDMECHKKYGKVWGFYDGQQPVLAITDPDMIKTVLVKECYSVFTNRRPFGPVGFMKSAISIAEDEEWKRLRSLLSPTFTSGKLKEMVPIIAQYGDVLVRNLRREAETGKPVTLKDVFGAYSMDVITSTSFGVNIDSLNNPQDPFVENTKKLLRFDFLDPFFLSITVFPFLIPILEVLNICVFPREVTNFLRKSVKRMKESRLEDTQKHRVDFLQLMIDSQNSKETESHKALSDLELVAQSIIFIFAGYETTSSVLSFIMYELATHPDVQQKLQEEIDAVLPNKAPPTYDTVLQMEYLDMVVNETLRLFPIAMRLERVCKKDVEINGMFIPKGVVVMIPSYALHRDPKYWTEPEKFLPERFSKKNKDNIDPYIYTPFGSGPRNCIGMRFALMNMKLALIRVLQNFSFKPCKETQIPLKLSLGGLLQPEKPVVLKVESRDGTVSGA

- IC50 (c-Raf-1): < 0.1 µM
- IC50 (CYP1A2): > 10 µM
- IC50 (CYP3A4(BQ)): > 10 µM
Compound: CCCS(=O)(=O)Nc1ccc(F)c(C(=O)c2c[nH]c3ncc(-c4ccc(N(C)C)nc4)cc23)c1F [P-2229, Propane-1-sulfonic acid {3-[5-(6-dimethylamino-pyridin-3-yl)-1H-pyrrolo[2,3-b]pyridine-3-carbonyl]-2,4-difluoro-phenyl}-amide]
